From ChEMBL document CHEMBL3414469, “Targeting DNA methylation with small molecules: what's next?” (J Med Chem, 2015)

How the values were obtained:
DNMT3A2/3L complex = DNMT3A2/3L complex (Homo sapiens, UniProt Q9Y6K1); assay: Inhibition of His6-tagged human recombinant DNMT3A/DNMT3L expressed in insect Sf9 cells assessed as reduction in DNA methyltransferase activity using 5'-biotinylated 45-bp unmethylated or hemimethylated oligonucleotide substrates and [3H]-AdoMet by liquid scintillation counting method
[1] = biological target: DNA (cytosine-5)-methyltransferase 3B (Homo sapiens, UniProt Q9UBC3); assay: Inhibition of His6-tagged human recombinant DNMT3b expressed in insect Sf9 cells assessed as reduction in DNA methyltransferase activity using 5'-biotinylated 45-bp unmethylated or hemimethylated oligonucleotide substrates and [3H]-AdoMet by liquid scintillation counting method
[2] = biological target: DNA (cytosine-5)-methyltransferase 1 (Homo sapiens, UniProt P26358); assay: Inhibition of His6-tagged human recombinant DNMT1 expressed in insect Sf9 cells assessed as reduction in DNA methyltransferase activity using 5'-biotinylated 45-bp unmethylated or hemimethylated oligonucleotide substrates and [3H]-AdoMet by liquid scintillation counting method
[3] = biological target: DNA (cytosine-5)-methyltransferase 3A (Homo sapiens, UniProt Q9Y6K1); assay: Inhibition of His6-tagged human recombinant DNMT3a expressed in insect Sf9 cells assessed as reduction in DNA methyltransferase activity using 5'-biotinylated 45-bp unmethylated or hemimethylated oligonucleotide substrates and [3H]-AdoMet by liquid scintillation counting method
[4] = Half life in sc dosed patient with myelodysplastic syndrome; details: human, in vivo
[5] = Half life in patient with myelodysplastic syndrome dosed via infusion; format: ADME, organism-based; details: human, in vivo, iv

DNA (cytosine-5)-methyltransferase 1, sequence (P26358 whole entry): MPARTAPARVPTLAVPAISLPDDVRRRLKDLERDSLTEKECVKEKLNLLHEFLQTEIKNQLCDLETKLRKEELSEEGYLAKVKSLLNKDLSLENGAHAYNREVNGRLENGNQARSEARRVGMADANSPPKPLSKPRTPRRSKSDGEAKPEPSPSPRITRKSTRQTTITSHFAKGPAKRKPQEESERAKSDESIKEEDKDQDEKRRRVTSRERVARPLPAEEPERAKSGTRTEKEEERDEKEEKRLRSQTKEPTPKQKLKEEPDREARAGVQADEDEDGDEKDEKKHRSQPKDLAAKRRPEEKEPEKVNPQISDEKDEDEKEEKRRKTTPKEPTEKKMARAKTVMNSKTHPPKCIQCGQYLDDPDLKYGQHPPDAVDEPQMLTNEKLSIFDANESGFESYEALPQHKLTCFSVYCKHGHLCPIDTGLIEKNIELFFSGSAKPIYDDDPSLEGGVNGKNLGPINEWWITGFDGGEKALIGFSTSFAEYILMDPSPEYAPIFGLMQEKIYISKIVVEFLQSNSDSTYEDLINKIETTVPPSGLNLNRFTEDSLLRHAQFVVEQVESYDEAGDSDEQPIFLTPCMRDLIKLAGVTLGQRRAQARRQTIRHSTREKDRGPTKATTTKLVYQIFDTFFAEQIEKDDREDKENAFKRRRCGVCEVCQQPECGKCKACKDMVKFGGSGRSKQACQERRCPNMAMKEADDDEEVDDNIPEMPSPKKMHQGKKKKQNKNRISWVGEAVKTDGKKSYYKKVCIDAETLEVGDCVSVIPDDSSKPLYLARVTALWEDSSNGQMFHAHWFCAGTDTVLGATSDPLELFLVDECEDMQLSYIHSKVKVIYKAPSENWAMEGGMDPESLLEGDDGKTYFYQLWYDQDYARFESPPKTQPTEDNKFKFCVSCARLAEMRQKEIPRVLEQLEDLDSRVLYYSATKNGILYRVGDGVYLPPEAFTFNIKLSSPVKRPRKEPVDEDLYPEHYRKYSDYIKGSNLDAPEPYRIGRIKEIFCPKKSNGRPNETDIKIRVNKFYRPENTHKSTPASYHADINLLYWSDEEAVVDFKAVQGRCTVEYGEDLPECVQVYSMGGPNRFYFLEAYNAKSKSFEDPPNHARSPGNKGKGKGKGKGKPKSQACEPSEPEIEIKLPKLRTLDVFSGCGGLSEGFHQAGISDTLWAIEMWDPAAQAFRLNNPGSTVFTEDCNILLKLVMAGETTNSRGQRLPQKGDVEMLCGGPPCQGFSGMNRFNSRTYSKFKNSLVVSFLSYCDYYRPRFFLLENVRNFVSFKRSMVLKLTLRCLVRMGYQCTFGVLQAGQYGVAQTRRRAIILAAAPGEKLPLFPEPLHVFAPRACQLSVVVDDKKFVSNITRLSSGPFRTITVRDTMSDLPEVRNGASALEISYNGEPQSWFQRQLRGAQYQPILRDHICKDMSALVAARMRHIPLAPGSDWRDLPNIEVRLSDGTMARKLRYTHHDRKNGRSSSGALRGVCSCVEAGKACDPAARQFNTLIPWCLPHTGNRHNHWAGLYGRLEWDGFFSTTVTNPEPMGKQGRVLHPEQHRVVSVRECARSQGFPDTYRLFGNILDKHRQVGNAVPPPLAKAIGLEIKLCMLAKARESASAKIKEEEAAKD
DNMT3A2/3L complex, sequence (Q9Y6K1 whole entry, looked up, one chain of several): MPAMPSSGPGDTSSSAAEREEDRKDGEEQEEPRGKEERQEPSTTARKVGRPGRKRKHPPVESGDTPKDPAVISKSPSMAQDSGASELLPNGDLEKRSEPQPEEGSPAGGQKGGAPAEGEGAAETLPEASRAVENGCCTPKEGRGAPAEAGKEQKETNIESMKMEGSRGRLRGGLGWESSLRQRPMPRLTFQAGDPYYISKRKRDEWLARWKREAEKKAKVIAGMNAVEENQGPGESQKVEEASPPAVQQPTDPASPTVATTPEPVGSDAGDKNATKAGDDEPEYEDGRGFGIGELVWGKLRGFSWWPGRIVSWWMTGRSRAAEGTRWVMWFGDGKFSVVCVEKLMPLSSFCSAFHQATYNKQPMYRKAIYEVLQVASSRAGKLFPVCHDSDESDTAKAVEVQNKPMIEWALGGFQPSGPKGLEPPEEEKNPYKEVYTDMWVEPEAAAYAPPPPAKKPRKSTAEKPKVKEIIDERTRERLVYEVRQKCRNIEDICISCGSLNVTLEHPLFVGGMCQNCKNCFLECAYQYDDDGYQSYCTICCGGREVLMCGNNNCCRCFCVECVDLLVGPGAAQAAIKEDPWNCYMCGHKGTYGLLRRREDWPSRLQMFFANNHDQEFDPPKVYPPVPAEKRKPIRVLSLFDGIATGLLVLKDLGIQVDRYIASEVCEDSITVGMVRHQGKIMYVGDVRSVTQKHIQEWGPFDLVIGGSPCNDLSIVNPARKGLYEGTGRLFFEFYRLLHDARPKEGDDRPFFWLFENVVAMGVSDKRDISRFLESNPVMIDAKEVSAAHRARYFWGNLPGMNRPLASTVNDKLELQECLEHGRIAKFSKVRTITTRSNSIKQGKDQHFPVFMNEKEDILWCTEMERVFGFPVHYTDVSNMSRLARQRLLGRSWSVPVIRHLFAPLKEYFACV
DNA (cytosine-5)-methyltransferase 3A, sequence (Q9Y6K1 whole entry, looked up): as the sequence (Q9Y6K1 whole entry, looked up, one chain of several) above

| Compound | IC50 (DNMT3A2/3L complex) [µM] | IC50 [2] [µM] | also measured |
| --- | --- | --- | --- |
| O=C(O)[C@H](Cc1c[nH]c2ccccc12)N1C(=O)c2ccccc2C1=O | 315 |  |  |
| Cc1cc(Nc2ccc(NC(=O)c3ccc(Nc4ccnc5ccccc45)cc3)cc2)nc(N)n1 |  |  | IC50 [1]: 7.5 µM |
| CCN(CC)CCNC(=O)c1ccc(NCCCCCCCCCCCCN2C(=O)c3ccccc3C2=O)cc1 | 21 | 4 |  |
| O=C(O)[C@H](Cc1c[nH]c2ccccc12)N1C(=O)C=CC1=O |  | 20 |  |
| O=[N+]([O-])c1cc(S(=O)(=O)Nc2ccc(O)c3ccccc23)ccc1Cl |  | 1.2 | IC50 [3]: 38 µM |
| O=[N+]([O-])c1ccc(C2=NC[C@H](CN3CCCC3)O2)cc1 |  | 150 |  |
| Nc1ncn([C@@H]2O[C@H](CO)[C@@H](O)[C@H]2O)c(=O)n1 [AZACITIDINE] |  |  | half-life [4]: 41 min |
| Nc1ncn([C@H]2C[C@H](O)[C@@H](CO)O2)c(=O)n1 [DECITABINE] |  |  | half-life [5]: 10 min |
| O=C1C(Cl)=C(Cl)C(=O)c2ccccc21 [Dichlon] | 0.5 | 1.6 |  |
| O=C(O[C@@H]1Cc2c(O)cc(O)cc2O[C@@H]1c1cc(O)c(O)c(O)c1)c1cc(O)c(O)c(O)c1 [EPIGALOCATECHIN GALLATE] |  | 0.5 |  |
| O=c1c(-c2ccc(O)cc2)coc2cc(O)cc(O)c12 [GENISTEIN] | > 100 | 30 |  |
| C[C@@H]1O[C@@H](CC(=O)O)CC2=C1C(=O)c1c(O)cccc1C2=O [NANAFROCIN] |  |  | IC50 [1]: 0.5 µM |
| CCN(CC)CCNC(=O)c1ccc(N)cc1 [PROCAINAMIDE] | > 300 | > 500 |  |
